Measurements taken from US20230398134A1, “SOLID DISPERSIONS OF CANNABIDIOL” (INDENA S.P.A., priority 2020, published 2023).

What was measured:
[1] = Solubility in fasted-state simulated intestinal fluid (FaSSIF, pH 6.5); assay type: physicochemical; details: FaSSIF pH 6.5, excess solid, 2 hours stirring at room temperature, filtered 0.45 μm
Description: (§1) The solubility of the solid powder dispersion of CBD 2, prepared as described in Example 1, was evaluated in simulated biological fluids. […] For the purposes of the present description, the term “mechanical mixture” means a combination of one or more solids amalgamated by mixing techniques not involving the use of any solvent.
(§2) The solubility studies in different biologically relevant media of the solid dispersion prepared according to Example 1 were conducted to evaluate its behaviour in the intestine under fed and fasted conditions. The solubility studies were conducted in FaSSIF (pH 6.5) and FeSSIF (pH 5).
(§3) 10-20 mL of FaSSIF and FeSSIF were placed in 40 mL glass vials. An amount of solid dispersion prepared according to Example 1, and an amount of mechanical mixture prepared according to Example 2, in excess of the expected saturated solubility, was added to the vials; the resulting mixtures were maintained under stirring for 2 hours at room temperature. The mixtures were filtered through 0.45 μm PTFE membrane filters. The filtered solutions were analysed with HPLC instrumentation.
10-20 mL of FaSSIF was placed in 40 mL glass vials. […] The mixtures were filtered through 0.45 μm PTFE membrane filters. The filtered solutions were analysed with HPLC instrumentation.

[2] = Solubility in fed-state simulated intestinal fluid (FeSSIF, pH 5); assay type: physicochemical; details: FeSSIF pH 5, excess solid, 2 hours stirring at room temperature, filtered 0.45 μm, HPLC (Table 2)
Description: as §1, §2, §3

In the case of `C=C(C)[C@@H]1CCC(C)=C[C@H]1c1c(O)cc(CCCCC)cc1O` [Cannabidiol 2, 2-[(1R,6R)-3-methyl-6-(prop-1-en-2-yl)-cyclohex-2-enyl]-5-pentylbenzen-1,3-diol], the “Cannabidiol 2 (mg/mL) concentration” value ([1]; HPLC (Table 2)) is reported as 0.067 mg/mL, the “Cannabidiol 2 (mg/mL) concentration” value ([1]; HPLC (Table 3)) is reported as 0.067 mg/mL and the “Cannabidiol 2 (mg/mL) concentration” value [2] is reported as 0.278 mg/mL.
